Measurements as given in PubChem BioAssay AID1963825 (Molecular Pharmacology Branch, DTP, NCI, 2024).

Assay: Anticancer human tumor 997537-175-T-J1-PDC patient-derived colon adenocarcinoma cell line growth inhibition [POLQ]
Conditions: 997537-175-T-J1-PDC complex spheroid viability, combination with POLQ inhibitors; for IC50: curve of first compound; for viability, T/C: stronger effect = lower value
In short: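 PDC + HUVEC + MSC complex spheroids; POLQ inhibitors ± partner drugs; top conc. at/near clinical Cmax, else 10 microM (SN-38 1 microM), half-log dilutions; 37 degrees C, 5% CO2.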
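Also: luminescence signal used as a surrogate for viable cells; spheroids exposed to drugs for seven days before readout.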

Compound: Cn1ncnc1[C@H]1c2n[nH]c(=O)c3cc(F)cc(c23)N[C@@H]1c1ccc(F)cc1 + Nc1ccc(C#CCN(C(=O)Cc2ncc(C(F)(F)F)cc2C(F)(F)F)c2ccc(F)cc2)nn1
- IC50 (second compound 0.0316 µM): > 100 nM
- IC50 (second compound 0.1 µM): > 100 nM
- IC50 (second compound 0.316 µM): > 100 nM
- IC50 (second compound 1 µM): > 100 nM
- IC50 (second compound 3.16 µM): > 100 nM
- IC50 (second compound 10 µM): > 100 nM
- viability, T/C (second compound 0.0316 µM, first compound 0.000316 µM): 98.8%
- viability, T/C (second compound 0.0316 µM, first compound 0.001 µM): 97.4%
- viability, T/C (second compound 0.0316 µM, first compound 0.00316 µM): 104%
- viability, T/C (second compound 0.0316 µM, first compound 0.01 µM): 94.5%
- viability, T/C (second compound 0.0316 µM, first compound 0.0316 µM): 98.1%
- viability, T/C (second compound 0.0316 µM, first compound 0.1 µM): 103%
- viability, T/C (second compound 0.1 µM, first compound 0.000316 µM): 103%
- viability, T/C (second compound 0.1 µM, first compound 0.001 µM): 114%
- viability, T/C (second compound 0.1 µM, first compound 0.00316 µM): 99.2%
- viability, T/C (second compound 0.1 µM, first compound 0.01 µM): 104%
- viability, T/C (second compound 0.1 µM, first compound 0.0316 µM): 95.7%
- viability, T/C (second compound 0.1 µM, first compound 0.1 µM): 99%
- viability, T/C (second compound 0.316 µM, first compound 0.000316 µM): 100%
- viability, T/C (second compound 0.316 µM, first compound 0.001 µM): 110%
- viability, T/C (second compound 0.316 µM, first compound 0.00316 µM): 95.6%
- viability, T/C (second compound 0.316 µM, first compound 0.01 µM): 106%
- viability, T/C (second compound 0.316 µM, first compound 0.0316 µM): 95.3%
- viability, T/C (second compound 0.316 µM, first compound 0.1 µM): 93.9%
- viability, T/C (second compound 1 µM, first compound 0.000316 µM): 105%
- viability, T/C (second compound 1 µM, first compound 0.001 µM): 90.5%
- viability, T/C (second compound 1 µM, first compound 0.00316 µM): 89.4%
- viability, T/C (second compound 1 µM, first compound 0.01 µM): 99.4%
- viability, T/C (second compound 1 µM, first compound 0.0316 µM): 120%
- viability, T/C (second compound 1 µM, first compound 0.1 µM): 90.5%
- viability, T/C (second compound 3.16 µM, first compound 0.000316 µM): 101%
- viability, T/C (second compound 3.16 µM, first compound 0.001 µM): 103%
- viability, T/C (second compound 3.16 µM, first compound 0.00316 µM): 86.4%
- viability, T/C (second compound 3.16 µM, first compound 0.01 µM): 95.3%
- viability, T/C (second compound 3.16 µM, first compound 0.0316 µM): 104%
- viability, T/C (second compound 3.16 µM, first compound 0.1 µM): 99.2%
- viability, T/C (second compound 10 µM, first compound 0.000316 µM): 95.4%
- viability, T/C (second compound 10 µM, first compound 0.001 µM): 102%
- viability, T/C (second compound 10 µM, first compound 0.00316 µM): 98.6%
- viability, T/C (second compound 10 µM, first compound 0.01 µM): 91.3%
- viability, T/C (second compound 10 µM, first compound 0.0316 µM): 103%
- viability, T/C (second compound 10 µM, first compound 0.1 µM): 106%
